Experimental findings from patent US10023577B2, “Crystalline form of JAK kinase inhibitor bisulfate and a preparation method thereof” (Jiangsu Hengrui Medicine Co., Ltd., priority 2014, dated 2018) are described below.

Data set [1] in a line: Stability of samples spread flat in the air under lighting, heating and high humidity, purity by HPLC. It is filed as physicochemical. On the procedure: Crystal form II prepared in Example 1 and the amorphous sample prepared in Example 2 were spread flat in the air to test their stability in conditions of lighting (4500 Lux), heating (40° C., 60′C.), and high humidity (RH 75%, RH 90%).

Data set [2] can be described thus: Special stability study: grinding, heating and pressing of the crystal form. It is filed as physicochemical. The source says:
Crystal form II of the compound of formula (I) prepared according to the method of Example 1 was ground, heated and pressed.

Each structure is given as a SMILES string. Entries after “also recorded” stand apart in the source; their conditions may differ.

Regarding `COc1nsc(NC(=O)N2C[C@H]3C[C@H](N(C)c4ncnc5[nH]ccc45)C[C@H]3C2)n1` [Amorphous Form, (3aR,5s,6aS)—N-(3-methoxyl-1,2,4-thiadiazole-5-yl)-5-(methyl(7H-pyrrolo[2,3-d]pyrimidine-4-yl)amino)hexahydrocyclopenta[c]pyrrole-2(1H)-formamide bisulfate], the “purity as detected by HPLC” value in data set [1] (40° C., Day 0) is on record as 98.33%; in data set [1] (40° C., Day 5) it was 97.65%; in data set [1] (40° C., Day 10), 96.61%; in data set [1] (60° C., Day 0), 98.33%; in data set [1] (60° C., Day 5), 94.53%; in data set [1] (60° C., Day 10), 92.12%. The “purity as detected by HPLC” value is listed as 98.33% in data set [1] (Lighting (4500 Lux), Day 0); 98.04% in data set [1] (Lighting (4500 Lux), Day 5); 97.51% in data set [1] (Lighting (4500 Lux), Day 10); 98.33% in data set [1] (RH 75%, Day 0); 98.32% in data set [1] (RH 75%, Day 5); 98.16% in data set [1] (RH 75%, Day 10). The “purity as detected by HPLC” value in data set [1] (RH 90%, Day 0) turned out to be 98.33%; in data set [1] (RH 90%, Day 5), 99.14%; in data set [1] (RH 90%, Day 10) it was 99.12%. Also, the “effect of high humidity on stability” value in data set [1] was “does not have much effect”.
`COc1nsc(NC(=O)N2C[C@H]3C[C@H](N(C)c4ncnc5[nH]ccc45)C[C@H]3C2)n1` [Crystal form II, (3aR,5s,6aS)—N-(3-methoxyl-1,2,4-thiadiazole-5-yl)-5-(methyl(7H-pyrrolo[2,3-d]pyrimidine-4-yl)amino)hexahydrocyclopenta[c]pyrrole-2(1H)-formamide bisulfate]: the “Crystal form after treatment” value in data set [2] (Grinding treatment for 10 minutes in a mortar under nitrogen atmosphere) is “form II”; in data set [2] (Heating treatment at 80° C. for 3 hours), “form II”; in data set [2] (Pressing treatment, pressed to a slice), “form II”. The “stability of the crystal form” value in data set [2] (ground, heated and pressed) is recorded as “good stability; also recorded: stable”. In addition, the “purity as detected by HPLC” value in data set [1] (40° C., Day 0) was 99.30%; in data set [1] (40° C., Day 5), 99.30%; in data set [1] (40° C., Day 10), 99.28%; in data set [1] (60° C., Day 0), 99.30%; in data set [1] (60° C., Day 5), 99.20%; in data set [1] (60° C., Day 10), 99.15%. Further, the “purity as detected by HPLC” value in data set [1] (Lighting (4500 Lux), Day 0) was 99.30%; in data set [1] (Lighting (4500 Lux), Day 5), 99.29%; in data set [1] (Lighting (4500 Lux), Day 10), 99.30%; in data set [1] (RH 75%, Day 0) it was 99.30%; in data set [1] (RH 75%, Day 5), 99.31%; in data set [1] (RH 75%, Day 10), 99.28%. Further, the “purity as detected by HPLC” value in data set [1] (RH 90%, Day 0) is given as 99.30%; in data set [1] (RH 90%, Day 5) it was 99.31%; in data set [1] (RH 90%, Day 10) it was 99.31%. The “stability compared with the amorphous sample” value in data set [1] (conditions of high temperature and high humidity) is listed as “significantly better than that of the amorphous sample”; in data set [1] (conditions of lighting and high temperature) it was “significantly better than that of the amorphous sample”. In data set [1], the “effect of high humidity on stability” value is “does not have much effect”.
